Laboratory results: US6420374B1, “Use of xanthines as immunosuppressants and to inhibit allograft reactions” (Fred Hutchinson Cancer Research Center, priority 1990, dated 2002)
“Also recorded” adds a separate entry of the source. Read-outs that look alike come from different tables or passages of the source.

Experiments:
[1] = test system: bidirectional MLR of blood mononuclear cells; assay: Bidirectional mixed leukocyte reaction (MLR), tritiated thymidine (3Htdr) uptake; type: cell-based, human; details: for suppressing lymphocyte activation evidenced by MLR: in vitro; for lowest concentration with significant suppression of 3Htdr uptake / most effective concentration (highest concentration tested): PHA / MLR cultures; for inhibition of 3Htdr uptake: blood mononuclear cells with PHA and in bidirectional MLR's, after 6 days in culture, concentration dependent; for T cell activation and proliferation: both by direct stimulation with PHA and in an MLR
Text: More particularly, co-cultivation of leukocytes from unrelated individuals leads to blast transformation and proliferation similar to that observed upon addition of mitogens to T-cells. The basis of this reaction appears to be the activation of T-cells from one individual by cell surface markers of another. Co-culturing of blood leukocytes from two individuals is referred to as “mixed leukocyte culture” or “MLC” and the reaction as “mixed leukocyte reaction” or “MLR”. Co-culturing of cells obtained from lymphoid organs is designated “mixed lymphocyte culture” or “mixed lymphocyte reaction”. Since even in the mixed leukocyte reaction, the participating cells are peripheral blood T lymphocytes, there is generally substantially no difference between the two types of culture. Thus, these expressions are used interchangeably herein.
MLR can be carried out using conventional techniques. Cultured cells for the MLR can be derived from peripheral blood, spleen, lymph nodes, or thymus. Cell number can vary by several orders of magnitude. The stimulating cells can be inactivated by irradiation or treatment with an antibiotic to disrupt DNA replication. The culture medium can be supplemented, if necessary, by serum proteins of autologous, syngeneic, allogeneic, or xenogeneic origin. Cultivation can be carried out over a period of several days. The degree of stimulation of responder cells by stimulating cells can be determined from the uptake rate of ^3H-thymidine or radiolabeled amino acids or by counting blasts and dividing cells. If a radiolabel is employed, it can be added to the culture several hours before harvesting.
When blood mononuclear cells from two unrelated individuals are cultured together, mutual stimulation occurs resulting in T cell activation and blastogenesis and ultimately in the generation of cytotoxic T cells and memory cells. This complex series of events, termed the mixed leukocyte reaction (MLR), requires genetic disparaties at the HLA-DR locus. Monocytic cells are needed for antigen processing and presentation. The MLR is thus measures lymphocyte recognition and response to non-self-antigens and serves as an in vitro representation of some of the cellular events associated with graft-versus-host disease (GVHD) and allograft rejection.
(§1) Results are the means SD of triplicate wells.
(§2) All values except those for M1 represent: the means of calculated results from 6 to 8 independent experiments. The M1 results are the average of 2 independent experiments.

[2] = cited from earlier work; for rank among the metabolites of pentoxifylline: in vivo
TNF mRNA = TNF mRNA level in whole cellular RNA extracted from an MLR; type: cell-based, human; details: MLR containing the compound
Text: There was no decrease in cell viability in the test cultures as assessed by trypan blue dye exclusion (cell viability >95% in all groups). When whole cellular RNA was extracted from an MLR, there was some upregulation of […] compared to cultures of the mononuclear cells cultured individually. However, basal levels of TNF mRNA were readily detectable, possibly due to some activation during the culture period. This was also reflected by significant levels of ^3Htdr uptake.

[3] = test system: T cell activation antigens (HLA-DR, transferrin receptor, IL-2 receptor, CD69; CD2); assay: Expression of T cell activation antigens by direct immunofluorescence after 6 days in a bidirectional MLR; type: cell-based, human; details: for expression of CD69 / expression of HLA-DR / expression of the IL-2 receptor / expression of the transferrin receptor: to near the levels of mononuclear cells from a single donor
Protocol: The following fluorescein isothyoc:yanate (FITC) or phycoerythrin (PE) conjugated antibodies were used: IgGl and IgG2a isotype controls, anti-HLe-1 (CD45), anti-LeuM3 (CD14). anti-Leu4(cd3), anti-IL2-receptor (CD25), anti-transferrin receptor (CD71), anti-HLA-DR, and anti-Leu23 (CD69). (All antibodies were from Becton-Dickinson, San Jose, Calif.) Staining was performed using Manufacturer's recommendations ([…] antibody/10^6 cells in 0.1 ml of phosphate buffered saline for 20′ at room temperature). The cells were washed twice, resuspended and analyzed on a Becton-Dickinson FACSan flow cytometer operating under Consort 30 software. The lymphocyte analysis gate was determined on the basis of forward scatter and side scatter and confirmed by examination of two-color immunofluorescence display for CD4S and CD14. Data are presented as the percentage of cells with fluorescence greater than that of the appropriate isotype control.
During T cell activation, there is increased expression of certain cell surface determinants which can serve as markers of activation.

[4] = test system: PHA-stimulated mononuclear cells; assay: PHA-stimulated blood mononuclear cells, tritiated thymidine (3Htdr) uptake; type: cell-based, human; details: rhTNF 200 U/ml added at inception of culture
Text: as §1, §2

TNF = assay: Release of TNF into the culture medium; type: cell-based, human
TNF mRNA in U937 cells = details: cited from earlier work
[5] = human urine, Metabolites II and III together

CCCCn1c(=O)c2c(ncn2CC(C)=O)n(CCCC)c1=O [Denbufylline, 7-acetonyl-1,3-dibutyl-xanthine]
suppressing lymphocyte activation evidenced by MLR [1]: not effective | suppressing lymphocyte activation evidenced by MLR ([1]; listed as compound (III)): has not been demonstrated

Cn1cnc2c1c(=O)n(CCCCC(O)CO)c(=O)n2C (centres unmarked) [Metabolite II, 1-(5,6-dihydroxyhexyl)-3,7-dimethylxanthine]
share of the excretion products [2, 5]: approximately 12%

CC(O)CCCCn1c(=O)c2c(ncn2C)n(C)c1=O (centres unmarked) [Compound M1, 1-(5-hydroxyhexyl)-3,7-dimethylxanthine]
lowest concentration with significant suppression of 3Htdr uptake [1]: 0.01 mM | most effective concentration (highest concentration tested) [1]: 1 mM | inhibition of 3Htdr uptake [1]: actively inhibited | T cell activation and proliferation [1]: suppressed | amount found in urine ([2]; human urine): Only traces | rank among the metabolites of pentoxifylline [2]: major metabolites

Cn1cnc2c1c(=O)n(CCCC(=O)O)c(=O)n2C [Metabolite V, 1-(3-carboxypropyl)-3,7-dimethylxanthine]
share of the administered dose in urine ([2]; human urine, main urinary metabolite): 50-60% | rank among the metabolites of pentoxifylline [2]: major metabolites

Cn1cnc2c1c(=O)n(CCCCC(=O)O)c(=O)n2C [Metabolite IV, 1-(4-carboxybutyl)-3,7-dimethylxanthine]
share of the excretion products ([2]; human urine): about 8%

CCOCn1cnc2c1c(=O)n(CCCCC(C)(C)O)c(=O)n2C [Compound 1, 7-ethoxymethyl-1-(5-hydroxy-5-methylhexyl)-3-methylxanthine]
inhibition of 3Htdr uptake [1]: actively inhibited | T cell activation and proliferation [1]: suppressed | level of TNF mRNA (TNF mRNA): significantly decreased | expression of CD2 (non-activation dependent pan-T antigen) [3]: no differences | expression of CD69 [3]: decreased | expression of HLA-DR [3]: decreased | expression of the IL-2 receptor [3]: decreased | expression of the transferrin receptor [3]: decreased

CC(O)C(O)CCCn1c(=O)c2c(ncn2C)n(C)c1=O (centres unmarked) [Metabolite III, 1-(4,5-dihydroxyhexyl)-3,7-dimethylxanthine]
share of the excretion products [2, 5]: approximately 12%

CC(=O)CCCCn1c(=O)c2c(ncn2C)n(C)c1=O [PTX, 1-(5-oxohexyl)-3,7-dimethylxanthine]
diminution in response to PHA after addition of recombinant human TNF [4]: not abrogated | lowest concentration with significant suppression of 3Htdr uptake [1]: 0.01 mM | most effective concentration (highest concentration tested) [1]: 1 mM | inhibition of 3Htdr uptake [1]: actively inhibited | T cell activation and proliferation [1]: suppressed | diminution (suppression) of the MLR after addition of recombinant human TNF ([1]; rhTNF 200 U/ml added at inception of culture): not abrogated; also recorded: not reversed | level of TNF mRNA (TNF mRNA): significantly decreased | expression of CD2 (non-activation dependent pan-T antigen) [3]: no differences | expression of CD69 [3]: decreased | expression of HLA-DR [3]: decreased | expression of the IL-2 receptor [3]: decreased | expression of the transferrin receptor [3]: decreased | release of the cytokine (TNF) into the culture medium (TNF): decreased | endotoxin induced upregulation of TNF mRNA (TNF mRNA in U937 cells): can prevent
